Columns and labels:
anticholinesterases = assay: Antagonism of lethal effects of anticholinesterases; conditions: as stated in Example 19
[1] = Excretion of methylsulfonylmethane; type: in vivo
Text: Orally ingested methylsulfonylmethane is stored to some degree in various organs, presumably banked for future sulfur needs of the body. The skin excretion route is unusual, particularly since about one-third of a given oral dose can be found in the perspiration. Like NaCl, excretion depends somewhat on perspiration rate. The accumulation in and excretion of methylsulfonylmethane from the skin is believed to account for its cosmetic effect, viz., more youthful appearing, pliable, blemish-reduced skin. Chemical and radiolabeled sulfur (35-S) assays can be used to determine the extent to which important biomolecules as heparin, insulin, co-enzyme A and other --SH bearing enzymes, biotin, methionine enkaphalin, human growth factor, hemoglobin, calcitonin, fibrinogen, muscle protein and other compounds derive their thiol (--S--) and disulfide (--S--S--) groups from methylsulfonylmethane and the possible preference of methylsulfonylmethane over S-content amino acids as the donor with such synthesis.

[2] = test system: rheumatoid arthritis and other intense pain-producing disease; assay: Intravenous administration in acute intense pain-producing disease; type: in vivo, human
Text: In U.S. Pat. No. 4,296,130, I teach that methylsulfonylmethane is so inert and non-toxic that aqueous solutions thereof can be used as a blood diluent. In healthy humans or other animals having adequately high methylsulfonylmethane blood levels, methylsulfonylmethane is in fact "inert" in the sense the term is used in that patent. However, in acutely ill patiets, dramatic beneficial benefits are often obtained by the intravenous administration of large doses of methylsulfonylmethane. For example, rheumatoid arthritic patients suffering from a flair-up of the disease which produces intense pain or crippling swelling of the joints or both achieve prompt relief, even those patients who obtain only minimal or delayed benefits from oral ingestion of methylsulfonylmethane.
Apparently, when a patient is in an acute stage of intense pain-producing disease, such as rheumatoid arthritis, osteoporosis, degenerative disc syndrome, an autoimmune disease or metathesized carcinoma, which produces intense pain, the relief from pain from oral ingestion of methylsulfonylmethane is sometimes too subtle or takes too long for the patient to obtain reasonably prompt subjective benefits therefrom.
Therefore, in one aspect this invention relates to a method for rapidly ameliorating at least the pain associated with an intense pain-producing disease by the intravenous administration of methylsulfonylmethane in an amount effective to ameliorate the pain.
The amount of methylsulfonylmethane intravenously administered can vary substantially because of its lack of toxicity and adverse side effects. Individual doses can vary from about 0.01 to 2 gm/kg, preferably from about 0.1 to 1 gm/kg, on a body weight basis, the usual dosage range is about 0.25 to 0.75 gm/kg, preferably about 0.5 gm/kg.
When large amounts are administered, e.g., in the order of 1 g/kg of body weight or more, i.e., infusion of 5% to 10% solution of methylsulfonylmethane in water, physiological saline or 5% dextrose is preferred. The rate of administration is preferably no greater than about 1 gm/kg/hr, although infusion rates as high as 2 gm/kg/hr are tolerated by patients, except for light-headedness of the type experienced by some blood donors is experienced by some patients at this rate.
For patients suffering from a serious chronic disease, e.g., an acute stage of rheumatoid arthritis or other acute inflammatory conditions or a patient in extreme pain, administer 1 gm/kg of methylsulfonylmethane i.v. as a 14% by wt. solution in sterile 5% dextrose solution, at the rate of 1 gm/kg/hr. Within 2-4 hours, significant subjective relief from the symptoms of the disease or condition is experienced by the patient, with the relief lasting for from 7 to 21 days.

coat = assay: Coat quality of dogs (Example 7); type: in vivo, dog (female labradors); conditions: 5% in drinking water, 45 days; three individuals
Text: The coats of animals A and B of Example 6 were examined by three individuals.

stress death = assay: Stress death in fish (Example 10); type: in vivo, Goldfish; conditions: 2% by weight in feed, 25 fish; control 11 deaths
Procedure: 62 Goldfish, about 2 inches long, were divided into two 31 population lots and placed in acclimated aquariums (2) maintained at 50° F. On receipt of the fish, two small one gallon aquariums were filled with tap water and stablized for 5 days by aeration with an aerator/filter combination connected to a common aquarium air pump. Air delivery during the test period was standardized at 100 ml of air per minute. From a 1 oz. package of "Wardleys" goldfish food two 10 gram samples were removed. One sample was untreated and the other was moistened with about one ml of pure ethanol containing 0.2 gram methylsulfonylmethane in solution. The feed absorbed all the methylsulfonylmethane (the lot after air drying for 48 hours weighed 10.2 grams). Both feeds were pulverized to a coarse powder suitable for feeding small fish.
The 31 fish in each of the two holding aquariums were identified as batch A and batch B. During the acclimatization and test periods the batch A fish were fed 0.5 gram of untreated "Wardleys" food once daily. Batch B fish were fed 0.5 gram of the feed containing the methylsulfonylmethane during the acclimatization and test periods. Neither batch A nor B consumed all of the feed as some eventually collected in the fiberglass filter. However, most of each feeding was consumed in the first 5-10 minutes after delivery. […]

[3] = test system: subjects in apparent good health; assay: Maintenance of good health (Example 12); type: in vivo, human
Procedure: 14 subjects of both sexes, all in apparent good health, ages 33-59, were given oral methylsulfonylmethane in amounts ranging from 250 to 500 mg daily which maintained their blood levels above 1 ppm. These individuals were continued on methylsulfonylmethane, taken as a solution in orange juice for periods of from about seven months to over one year.

weight gain = assay: Diet supplement in animals (Example 18); type: in vivo, laboratory animals, including dogs
Text: A possible explanation for this is that any minor allergic response to the diet was neutralized by the methylsulfonylmethane.

mammary tumors = conditions: abdominal DMBA; in drinking water; tumors in control animals; cited from earlier work
[4] = 1 gm/kg i.v., 14% solution in 5% dextrose, 1 gm/kg/hr (Example 34)
[5] = 250 to 500 mg daily, seven months to over one year
[6] = about 60 and about 500 mg/day/kg body wt.

## CS(C)(=O)=O [methylsulfonylmethane]
anticholinesterases
  antagonism of anticholinesterases in vivo: antagonizes
[1]; i.v. administration
  rate of excretion: very rapidly excreted
[1]; in vivo
  excretion of excess amounts (feces, renal pathway, skin): excreted unchanged
[1]; oral
  portion of a given oral dose found in the perspiration: about one-third
[2]; [4]
  duration of relief: 7 to 21 days
  time to significant subjective relief from symptoms: 2 to 4 h
[2]; i.v.
  time to relief from pain: within hours and often within minutes
[2]; i.v., large doses
  relief in flare-up of rheumatoid arthritis: prompt relief
[2]; one i.v., then oral
  duration of remission maintained with oral ingestion after one i.v. administration: weeks or months
coat
  coat quality (thickness and shiny appearance): superior
Stress death
  deaths in aquarium by day ten: one
[3]; 250 to 500 mg daily oral
  blood level: above 1 ppm
[3]; [5]
  illness during testing: None of the 14 became ill
  reported well-being: feeling better and stronger with increased endurance
Weight gain; [6]
  fur quality: improved
  nail growth: somewhat faster
  weight gain of immature animals vs controls: gained weight at a greater rate
Weight gain; comparable feeding experiments
  weight increases with adult animals: not seen
Mammary tumors
  development of tumors: did not develop tumors
